# Experimental data as given in patent US20140079775A1, “AGENTS TO TREAT/PREVENT AMOEBIASIS” (priority 2011, published 2014).
# Where two headings read alike, the source gives them in different places.
# Tested on: E. histolytica mediated cytotoxicity on HT-29 cell layers
# Type: cell-based, Entamoeba histolytica
# Details: for protection of the cell layer (in words): physiologically relevant concentrations of individual HMO
# Protocol: FIG. 2 HMO prevent E. histolytica mediated cytotoxicity in in vitro co-culture with enterocytes. Representative images of methylene blue stained HT-29 cell layers as such (A, left) or cocultured with HM-1 trophozoites in the absence (A, middle) or presence (A, right) of 10 mg/ml HMO. Dose response curve with different concentrations of HMO (B). The O.D 660 nm of methyleneblue cell layers was used as a measure for cytotoxicity. The cytoprotective effect of HMO was calculated as the percent ‘cell rescue’ compared to the untreated coculture (0%). Results are means SEM of 4 independent experiments. Cocultures were incubated with different glycans and cytotoxicity was determined as described above (C). […] HMO rescues cell layers when added to existing cocultures (D). HT-29 cells were cocultured with HM-1 and 20 mg/ml HMO was added at the indicated times of coculture. Cocultures were stopped and cytotoxicity was determined after 2 hrs. Control cell layers were cocultured for 2 hrs in the absence of HMO and were considered to have 0% cell rescue.
# FIG. 3 Protection of the HT-29 monolayer by individual HMO. Cell rescue in co-culture treated with physiologically relevant concentrations of individual HMO (A). Symbols represent structures of individual HMO. Cell survival in the presence of equimolar concentrations of LNT, LNFP1 and a mixture of LNFP1, LNFP2, and LNFP3. […] Cytotoxicity assay with 10 mM 2′FL before and after fucosidase digestion (C). 2′FL left untreated or incubated with alpha1, 2 fucosidase was used in cytotoxicity assay. As controls, we used enzyme reaction buffer with inactivated fucosidase (control); equimolar concentrations (10 mM) of Lac, Fuc, or Fuc and Lac combined. Data from cytotoxicity assays are presented as % cell rescue compared to untreated cocultures (0%). Error bars are SEM, stars indicate statistical significance compared to control unless indicated by bars.
# FIG. 4 GOS reduces cytotoxicity of trophozoites independent of its lactose content. Cell rescue in cocultures treated with increasing concentrations of GOS (triangles) or its corresponding lactose content (circles)(A). Cytotoxicity assay with GOS fractions (B). Higher numbered (eluted later) fractions contain lower molecular weight carbohydrates. The lactose content of fractions 11 and 12 is indicated above the respective bars. HPLC chromatogram of the original GOS preparation (20% lactose) (upper panel) and of the lactose free GOS (<0.5%) (C). Cytotoxicity assay with increasing concentrations of lactose-free GOS (triangles) and Lac-containing GOS (circles)(D).
# HMO prevent enterocyte cytotoxicity by E. histolytica in in vitro cocultures. Previous studies have shown reduced Entamoeba attachment and cytotoxicity in the presence of selected carbohydrates (Cano-Mancera and Lopez-Revilla, 1987; Ravdin and Guerrant, 1981; Bracha and Mirelman, 1984). We tested the effect of HMO on Entamoeba induced cytotoxicity in in vitro cocultures with HT-29 cell layers and calculated the % cell rescue (FIG. 2A). […] The cell protective effect of 20 mg/ml HMO is similar to the effect of 10 mM lactose and better than the effect of 10 mM galactose (FIG. 2C). […] Treatment with 20 mg/ml after 90 min of cocultures could still rescue 31±4.7% of the cell layer.
Compound,protection of the cell layer (in words),prevention of cytotoxicity (in words) (10 mM),also measured
"CC(=O)N[C@H]1[C@H]([C@H](O)[C@H](O)CO)O[C@@](OC[C@H]2O[C@@H](O[C@H]3[C@H](O)[C@@H](O)C(O)O[C@@H]3CO)[C@H](O)[C@@H](O)[C@H]2O)(C(=O)O)C[C@@H]1O (stereo partly drawn) [6′SL, 6-sialyl-lactose]",failed to prevent monolayer destruction,,
CC(=O)N[C@H]1[C@H](O[C@H]2[C@@H](O)[C@@H](CO)O[C@@H](O[C@H]3[C@H](O)[C@@H](O)C(O)O[C@@H]3CO)[C@@H]2O)O[C@H](CO)[C@@H](O)[C@@H]1O[C@@H]1O[C@H](CO)[C@H](O)[C@H](O)[C@H]1O[C@@H]1O[C@@H](C)[C@@H](O)[C@@H](O)[C@@H]1O (stereo partly drawn) [LNFP1],,,rescue of enterocytes (in words) (5 mg/ml): no effect; cell rescue (10 mM): 16.9±1.7%
O=C[C@H](O)[C@@H](O)[C@@H](O)[C@H](O)CO [galactose],,no significant effect,
"OC[C@H]1O[C@@H](O[C@H]2[C@H](O)[C@@H](O)C(O)O[C@@H]2CO)[C@H](O)[C@@H](O)[C@H]1O (stereo partly drawn) [Lactose, lactose]",,significantly prevent cytotoxicity,effect on cytotoxicity compared with lactose containing GOS (in words) (Lac concentrations present in each GOS sample): significantly lower
C[C@H](O)[C@@H](O)[C@@H](O)[C@H](O)C=O [fucose],,no significant effect,"prevention of cytotoxicity (in words) (10 mM, listed as Fucose): do not prevent cytotoxicity"
3-sialyl-lactose [3′SL],failed to prevent monolayer destruction,,
"CC(=O)N[C@H]1[C@H](O[C@H]2[C@@H](O)[C@@H](CO)O[C@@H](O[C@H]3[C@H](O)[C@@H](O)C(O)O[C@@H]3CO)[C@@H]2O)O[C@H](CO)[C@@H](O)[C@@H]1O[C@@H]1O[C@H](CO)[C@H](O)[C@H](O)[C@H]1O (stereo partly drawn) [LNT, Lacto-N-tetraose]",significantly protected the cell layer,,cell rescue (5 mg/ml): 49.5±9.2%; cell rescue (10 mM): 79±8.3%
